Legend:
insulin receptor = assay: Insulin assay: displacement of [125I] ligand from human placental membranes; format: binding; settings: relative to human insulin = 100, human placental membrane protein, 24 hours at 4°C, from EC50 values of displacement curves
Protocol: (§1) Measurements of insulin and IGF-1 activities were accomplished in substantial accordance with the teaching of Gruppuso, et al. (1988) J. of Clin. Endocrin. and Metab. 67:194-197. Briefly, 30-50 µg of human placental membrane protein was incubated with approximately 10 femtomoles of [^125I] ligand in a final volume of 500 µl of 100 mM HEPES, pH 7.8, 120mM NaCl, 5mM KCl, 1.2mM MgSO4, 8mM glucose and 0.25% BSA for 24 hours at 4°C. Membranes were collected on glass fiber filters pre-treated with 0.1% polyethyleneimine by using a cell harvester (Skatron, Lier, Norway). Binding data were analyzed by fitting displacement curves to a four parameter model employing Prefit/Allfit® software for the determination of EC50 values.

IGF-1 receptor = assay: IGF-1 assay: displacement of [125I] ligand from human placental membranes; format: binding; settings: relative to IGF-1 = 100, human placental membrane protein, 24 hours at 4°C, from EC50 values of displacement curves
Protocol: as §1

Q: For “bCa: single-chain human insulin B-chain and A-chain joined by Bridging Peptide GLY-TYR-GLY-SER-SER-SER-ARG-ARG-ALA-PRO-GLN-THR; made by solid-phase synthesis”, which “%Insulin Activity” value (insulin receptor) is on record?
A: 34%

Q: And the “%IGF-1 Activity” value (IGF-1 receptor)?
A: 23%

Reference: patent EP0741188A2, “Single chain insulin with high bioactivity” (ELI LILLY AND COMPANY, priority 1995, dated 1996)
